Species: Rattus norvegicus
Test: DrugMatrix - Regimen: Daily Repeat
Format: toxicity, organism-based, Sprague-Dawley
Design: regimen Daily Repeat, gender Male, age 6-8 weeks
Details: in vivo, po, route oral GAVAGE, […]; for ABSOLUTE BASOPHIL / ABSOLUTE EOSINOPHIL / ABSOLUTE LYMPHOCYTE / ABSOLUTE MONOCYTE / ABSOLUTE SEGMENTED NEUTROPHIL / BASOPHIL / EOSINOPHIL / ERYTHROCYTE COUNT / HEMATOCRIT / HEMOGLOBIN / LEUKOCYTE COUNT / LYMPHOCYTE / MEAN CORPUSCULAR HEMOGLOBIN / MEAN CORPUSCULAR HEMOGLOBIN CONCENTRATION / MEAN CORPUSCULAR VOLUME / MONOCYTE / NEUTROPHIL / NUCLEATED RED BLOOD CELLS / PLATELET COUNT: tissue Blood
[1] = 67 mg/kg, 72 h, dose level Low, time 3 day
[2] = 67 mg/kg, 72 h, tissue Plasma, dose level Low, time 3 day
[3] = 67 mg/kg, 120 h, dose level Low, time 5 day
[4] = 67 mg/kg, 120 h, tissue Plasma, dose level Low, time 5 day

Structure (SMILES): Cc1cccc(C)c1NC(=O)C(C)N (stereo unspecified) [TOCAINIDE]
- URIC ACID (0 mg/kg, 120 h, tissue Plasma, dose level Control, time 5 day): 0.7 mg/dL
- ABSOLUTE BASOPHIL [1]: 0 CELLS/uL
- ABSOLUTE EOSINOPHIL [1]: 83.33 CELLS/uL
- ABSOLUTE LYMPHOCYTE [1]: 10800 CELLS/uL
- ABSOLUTE MONOCYTE [1]: 251.33 CELLS/uL
- ABSOLUTE SEGMENTED NEUTROPHIL [1]: 1265.33 CELLS/uL
- BASOPHIL [1]: 0%
- EOSINOPHIL [1]: 0.67%
- ERYTHROCYTE COUNT [1]: 5.15 x10E6/uL
- HEMATOCRIT [1]: 32.47%
- HEMOGLOBIN [1]: 12.83 G/DL
- LEUKOCYTE COUNT [1]: 12.4 x10E3/uL
- LYMPHOCYTE [1]: 86.67%
- MEAN CORPUSCULAR HEMOGLOBIN [1]: 24.97 pg
- MEAN CORPUSCULAR HEMOGLOBIN CONCENTRATION [1]: 39.5 G/DL
- MEAN CORPUSCULAR VOLUME [1]: 63.07 fL
- MONOCYTE [1]: 2.33%
- NEUTROPHIL [1]: 10.33%
- NUCLEATED RED BLOOD CELLS [1]: 0 /100WBC
- PLATELET COUNT [1]: 980 x10E3/uL
- ALANINE AMINOTRANSFERASE [2]: 64 u/L
- ALBUMIN [2]: 3.83 G/DL
- ALKALINE PHOSPHATASE [2]: 379.67 u/L
- ASPARTATE AMINOTRANSFERASE [2]: 79.67 u/L
- BLOOD UREA NITROGEN [2]: 12.33 mg/dL
- CARBON DIOXIDE [2]: 26 mmol/L
- CHLORIDE [2]: 101 MEQ/L
- CHOLESTEROL [2]: 69.33 mg/dL
- CREATINE PHOSPHOKINASE [2]: 212.67 u/L
- CREATININE [2]: 0.29 mg/dL
- GLUCOSE [2]: 163 mg/dL
- LACTATE DEHYDROGENASE [2]: 145.67 u/L
- LIPASE [2]: 16 u/L
- PHOSPHORUS [2]: 10.33 mg/dL
- POTASSIUM [2]: 5.62 MEQ/L
- SODIUM [2]: 142.37 MEQ/L
- TOTAL BILIRUBIN [2]: 0.2 mg/dL
- TOTAL PROTEIN [2]: 5.4 G/DL
- URIC ACID [2]: 0.83 mg/dL
- ABSOLUTE BASOPHIL [3]: 0 CELLS/uL
- ABSOLUTE EOSINOPHIL [3]: 0 CELLS/uL
- ABSOLUTE LYMPHOCYTE [3]: 9456 CELLS/uL
- ABSOLUTE MONOCYTE [3]: 276.33 CELLS/uL
- ABSOLUTE SEGMENTED NEUTROPHIL [3]: 701 CELLS/uL
- BASOPHIL [3]: 0%
- EOSINOPHIL [3]: 0%
- ERYTHROCYTE COUNT [3]: 5.11 x10E6/uL
- HEMATOCRIT [3]: 34.43%
- HEMOGLOBIN [3]: 13.2 G/DL
- LEUKOCYTE COUNT [3]: 10.43 x10E3/uL
- LYMPHOCYTE [3]: 90.67%
- MEAN CORPUSCULAR HEMOGLOBIN [3]: 25.9 pg
- MEAN CORPUSCULAR HEMOGLOBIN CONCENTRATION [3]: 38.37 G/DL
- MEAN CORPUSCULAR VOLUME [3]: 67.47 fL
- MONOCYTE [3]: 2.67%
- NEUTROPHIL [3]: 6.67%
- NUCLEATED RED BLOOD CELLS [3]: 0 /100WBC
- PLATELET COUNT [3]: 1124 x10E3/uL
- ALANINE AMINOTRANSFERASE [4]: 58.33 u/L
- ALBUMIN [4]: 4.1 G/DL
- ALKALINE PHOSPHATASE [4]: 361 u/L
- ASPARTATE AMINOTRANSFERASE [4]: 79.67 u/L
- BLOOD UREA NITROGEN [4]: 10.67 mg/dL
- CARBON DIOXIDE [4]: 30.67 mmol/L
- CHLORIDE [4]: 95 MEQ/L
- CHOLESTEROL [4]: 65.67 mg/dL
- CREATININE [4]: 0.16 mg/dL
- GLUCOSE [4]: 174.33 mg/dL
- LACTATE DEHYDROGENASE [4]: 154.67 u/L
- LIPASE [4]: 9.67 u/L
- PHOSPHORUS [4]: 10.87 mg/dL
- POTASSIUM [4]: 5.33 MEQ/L
- SODIUM [4]: 137.97 MEQ/L
- TOTAL BILIRUBIN [4]: 0.17 mg/dL
- TOTAL PROTEIN [4]: 5.97 G/DL
- URIC ACID [4]: 0.7 mg/dL

— ChEMBL document CHEMBL3885881, “DrugMatrix”
